Molecular target: T1, MAO-B (Homo sapiens, UniProt P27338)
T1 construct: from tissue; host or cells: whole body of living study subjects (in vivo); no isolated enzyme
T1 sequence (P27338 1-520): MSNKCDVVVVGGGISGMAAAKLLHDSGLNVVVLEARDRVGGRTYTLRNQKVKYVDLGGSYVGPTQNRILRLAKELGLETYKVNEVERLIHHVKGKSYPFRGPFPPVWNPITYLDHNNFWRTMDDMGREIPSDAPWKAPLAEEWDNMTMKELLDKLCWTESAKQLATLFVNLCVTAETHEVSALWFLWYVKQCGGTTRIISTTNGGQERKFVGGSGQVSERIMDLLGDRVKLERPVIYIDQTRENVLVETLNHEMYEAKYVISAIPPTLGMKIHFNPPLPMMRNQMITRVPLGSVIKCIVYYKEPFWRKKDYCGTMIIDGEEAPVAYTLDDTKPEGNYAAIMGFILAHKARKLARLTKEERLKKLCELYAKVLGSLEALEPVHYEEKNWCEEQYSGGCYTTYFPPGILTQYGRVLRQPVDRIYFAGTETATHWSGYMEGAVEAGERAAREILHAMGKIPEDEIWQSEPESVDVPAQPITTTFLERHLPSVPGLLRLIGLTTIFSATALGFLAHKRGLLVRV
Assay type: in vivo
Settings: four pharmacokinetic studies

How did the “correlation of Log 10 plasma AUC with 24 hour cumulative urinary excretion of phenethylamine” value turn out when `C#CCN[C@H](C)Cc1ccccc1` [N-desmethylselegiline] was run?
Its value is “no significant correlation”.

Reference: patent publication US9820937B2, “Pharmaceutical composition formulated for pre-gastric absorption of monoamine oxidase B inhibitors” (R.P. Scherer Technologies, LLC, priority 1997, dated 2017)
